# In US10065970B2 (Genentech, Inc., priority 2015, dated 2018):
# Target: PI3Kα (alpha) (Homo sapiens (Human), UniProt P42336)
# Assay: p110α (alpha) PI3K Binding Assay (ADP-Glo lipid kinase reaction)
# Assay type: biochemical
# Details: PI3K alpha 0.2 nM, ATP 40 μM, PIP2:3PS 50 μM, 120 min, room temperature; Ki by Morrison Equation; read-out: PI3Kα-(alpha) ATP (Ki) micromolar
# Description: The ability of a compound of the invention to act as an inhibitor of PI3Kα was determined using the methods of Example 901.
# PI3K Binding assays are intended for determining the biochemical potency of small molecule PI3K inhibitors. The PI3K lipid kinase reaction is performed in the presence of PIP2:3PS lipid substrate (Promega #V1792) and ATP. Following the termination if the kinase reaction, turnover of ATP to ADP by the phosphorylation of the lipid substrate is detected using the Promega ADP-Glo™ (Promega #V1792) assay. Reactions are carried out using the following conditions:
# After 120 minutes of reaction time, the kinase reaction is terminated. Any ATP remaining after the reaction is depleted, leaving only ADP. Then the Kinase Detection Reagent is added to convert ADP to ATP, which is used in a coupled luciferin/luciferase reaction. The luminescent output is measured and is correlated with kinase activity.
# All reactions are carried out at room temperature. A 3 μl mixture (1:1) of enzyme/lipid substrate solution is added to a 384 well white assay plate (Perkin Elmer #6007299) containing 50 nl of test compound or DMSO only for untreated controls. The reaction is started by the addition of 2 μl ATP/MgCl2. The kinase reaction buffer contains 50 mM HEPES, 50 mM NaCl, 3 mM MgCl2, 0.01% BSA, 1% DMSO, and enzyme and substrate concentrations as indicated in the above table. The reaction is stopped by the addition of 10 μL ADP-Glo reagent. Plates are read in a Perkin Elmer Envision system using luminescence mode. 10 point dose response curves are generated for each test compound. Ki values for each compound are determined using the Morrison Equation.
# Chain of PI3Kα (alpha) (P42336 whole entry): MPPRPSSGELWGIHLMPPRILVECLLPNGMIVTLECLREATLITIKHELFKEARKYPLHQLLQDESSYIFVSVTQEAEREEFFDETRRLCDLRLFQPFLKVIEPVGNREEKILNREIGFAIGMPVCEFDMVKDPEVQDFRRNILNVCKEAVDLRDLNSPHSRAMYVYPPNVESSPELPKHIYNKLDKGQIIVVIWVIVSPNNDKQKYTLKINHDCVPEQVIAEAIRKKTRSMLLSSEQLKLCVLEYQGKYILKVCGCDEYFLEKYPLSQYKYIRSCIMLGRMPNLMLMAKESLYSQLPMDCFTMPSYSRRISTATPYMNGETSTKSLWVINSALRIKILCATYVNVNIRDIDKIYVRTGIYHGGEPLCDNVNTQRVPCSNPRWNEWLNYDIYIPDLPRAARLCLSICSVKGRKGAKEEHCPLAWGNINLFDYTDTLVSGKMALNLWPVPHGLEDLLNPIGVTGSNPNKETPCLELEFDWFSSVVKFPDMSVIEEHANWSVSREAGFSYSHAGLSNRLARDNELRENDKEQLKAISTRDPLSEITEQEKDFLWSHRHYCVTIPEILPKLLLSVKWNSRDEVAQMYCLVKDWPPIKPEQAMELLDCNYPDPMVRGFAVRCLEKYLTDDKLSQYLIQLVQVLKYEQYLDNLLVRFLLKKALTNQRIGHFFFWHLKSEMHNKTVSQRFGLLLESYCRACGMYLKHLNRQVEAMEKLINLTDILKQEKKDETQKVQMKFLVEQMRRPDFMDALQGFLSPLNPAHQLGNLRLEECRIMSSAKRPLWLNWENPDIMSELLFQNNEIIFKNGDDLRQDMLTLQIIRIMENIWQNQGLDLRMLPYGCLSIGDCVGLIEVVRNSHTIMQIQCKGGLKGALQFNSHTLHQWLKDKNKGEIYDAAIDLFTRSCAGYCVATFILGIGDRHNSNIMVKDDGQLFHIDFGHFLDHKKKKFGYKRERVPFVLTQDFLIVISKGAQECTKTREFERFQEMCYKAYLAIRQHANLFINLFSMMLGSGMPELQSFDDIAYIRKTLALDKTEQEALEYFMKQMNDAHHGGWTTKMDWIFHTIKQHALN
# Chain of PI3Kα (alpha) (P27986 whole entry partner): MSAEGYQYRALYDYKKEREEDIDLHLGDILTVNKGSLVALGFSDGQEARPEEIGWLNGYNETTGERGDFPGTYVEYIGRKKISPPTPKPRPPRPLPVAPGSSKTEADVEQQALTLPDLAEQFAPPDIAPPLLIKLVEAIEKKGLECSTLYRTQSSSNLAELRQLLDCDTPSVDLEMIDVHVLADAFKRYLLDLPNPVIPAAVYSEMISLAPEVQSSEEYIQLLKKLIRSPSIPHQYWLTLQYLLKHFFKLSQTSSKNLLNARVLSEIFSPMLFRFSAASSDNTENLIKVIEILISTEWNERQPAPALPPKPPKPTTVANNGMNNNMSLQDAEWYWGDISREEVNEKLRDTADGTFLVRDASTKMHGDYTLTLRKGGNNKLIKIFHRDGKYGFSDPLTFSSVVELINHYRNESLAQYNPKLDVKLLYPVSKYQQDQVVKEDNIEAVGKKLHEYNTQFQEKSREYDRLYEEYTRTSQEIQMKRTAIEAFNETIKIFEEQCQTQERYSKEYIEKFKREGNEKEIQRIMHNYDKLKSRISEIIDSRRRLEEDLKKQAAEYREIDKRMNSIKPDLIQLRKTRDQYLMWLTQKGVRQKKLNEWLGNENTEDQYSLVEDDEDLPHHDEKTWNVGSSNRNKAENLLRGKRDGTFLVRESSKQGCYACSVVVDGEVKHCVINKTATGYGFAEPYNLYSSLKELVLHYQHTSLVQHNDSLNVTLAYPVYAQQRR
row,Ki [nM],Structure (SMILES)
1,0.563,"Nc1nc2cc(-c3nc4cc(N[C@H]5C[C@H](F)C5)cc5c4n3CCCO5)ccc2o1 (single isomer, unassigned) [Example 202, 1-(2-Aminobenzo[d]oxazol-5-yl)-N-((1r,3r)-3-fluorocyclobutyl)-8,9-dihydro-7H-6-oxa-2,9a-diazabenzo[cd]azulen-4-amine]"
2,1.37,"Nc1nc2cc(-c3nc4cc(N[C@H]5C[C@@H](F)C5)cc5c4n3CCCO5)ccc2o1 (single isomer, unassigned) [Example 203, 1-(2-Aminobenzo[d]oxazol-5-yl)-N-((1s,3s)-3-fluorocyclobutyl)-8,9-dihydro-7H-6-oxa-2,9a-diazabenzo[cd]azulen-4-amine]"
3,0.309,"NC(=O)[C@H](C1CC1)n1cc(-c2cc3c4c(c2)nc(-c2ccc5oc(N)nc5c2)n4CCCO3)cn1 (single isomer, unassigned) [Example 230]"
4,0.437,"NC(=O)[C@@H](C1CC1)n1cc(-c2cc3c4c(c2)nc(-c2ccc5oc(N)nc5c2)n4CCCO3)cn1 (single isomer, unassigned) [Example 231]"
5,0.311,"COC[C@](C)(C(N)=O)n1cc(-c2cc3c4c(c2)nc(-c2ccc5oc(N)nc5c2)n4CCCO3)cn1 (single isomer, unassigned) [Example 232]"
6,0.119,"COC[C@@](C)(C(N)=O)n1cc(-c2cc3c4c(c2)nc(-c2ccc5oc(N)nc5c2)n4CCCO3)cn1 (single isomer, unassigned) [Example 233]"
7,1.28,"CC[C@@H](Oc1cc2c3c(c1)nc(-c1ccc(-c4nc[nH]n4)cc1)n3CCCCO2)C(N)=O (single isomer, unassigned) [Example 267]"
8,0.0214,"CC[C@H](Oc1cc2c3c(c1)nc(-c1ccc(-c4nc[nH]n4)cc1)n3CCCCO2)C(N)=O (single isomer, unassigned) [Example 268]"
9,0.754,"C[C@@H](Oc1cc2c3c(c1)nc(-c1ccc4sc(N)nc4c1)n3CCCCO2)C(N)=O (single isomer, unassigned) [Example 275]"
10,0.113,"C[C@H](Oc1cc2c3c(c1)nc(-c1ccc4sc(N)nc4c1)n3CCCCO2)C(N)=O (single isomer, unassigned) [Example 276]"
11,0.208,"C[C@H](Oc1cc2c3c(c1)nc(-c1cc4sc(N)nc4cc1F)n3CCCCO2)C(N)=O (single isomer, unassigned) [Example 277]"
12,4.6,"C[C@@H](Oc1cc2c3c(c1)nc(-c1cc4sc(N)nc4cc1F)n3CCCCO2)C(N)=O (single isomer, unassigned) [Example 278]"
13,1.02,"NC(=O)[C@H](Oc1cc2c3c(c1)nc(-c1cc(F)c4nc(N)sc4c1)n3CCCCO2)C1CC1 (single isomer, unassigned) [Example 279]"
14,< 0.02,"NC(=O)[C@@H](Oc1cc2c3c(c1)nc(-c1cc(F)c4nc(N)sc4c1)n3CCCCO2)C1CC1 (single isomer, unassigned) [Example 280]"
15,0.027,"NC(=O)[C@@H](Oc1cc2c3c(c1)nc(-c1ccc4nc(N)sc4c1)n3CCCCO2)C1CC1 (single isomer, unassigned) [Example 281]"
16,5.53,"NC(=O)[C@H](Oc1cc2c3c(c1)nc(-c1ccc4nc(N)sc4c1)n3CCCCO2)C1CC1 (single isomer, unassigned) [Example 282]"
17,0.072,"C[C@H](Oc1cc2c3c(c1)nc(-c1ccc4nc(N)sc4c1F)n3CCCCO2)C(N)=O (single isomer, unassigned) [Example 286]"
18,1.71,"C[C@@H](Oc1cc2c3c(c1)nc(-c1ccc4nc(N)sc4c1F)n3CCCCO2)C(N)=O (single isomer, unassigned) [Example 287]"
19,0.038,"CC[C@@H](C(N)=O)n1cc(-c2cc3c4c(c2)nc(-c2ccc5oc(N)nc5n2)n4CCCCO3)cn1 (single isomer, unassigned) [Example 301]"
20,0.102,"CC[C@H](C(N)=O)n1cc(-c2cc3c4c(c2)nc(-c2ccc5oc(N)nc5n2)n4CCCCO3)cn1 (single isomer, unassigned) [Example 302]"

row,Ki [nM],Structure (SMILES)
1,5.62,"COC[C@H](Oc1cc2c3c(c1)nc(-c1ccc4nc(N)sc4c1)n3CCCCO2)C(N)=O (single isomer, unassigned) [Example 303]"
2,0.127,"COC[C@@H](Oc1cc2c3c(c1)nc(-c1ccc4nc(N)sc4c1)n3CCCCO2)C(N)=O (single isomer, unassigned) [Example 304]"
3,< 0.02,"NC(=O)[C@@H](Oc1cc2c3c(c1)nc(-c1ccc(-c4ncn[nH]4)c(F)c1)n3CCCCO2)C1CC1 (single isomer, unassigned) [Example 305]"
4,0.72,"NC(=O)[C@H](Oc1cc2c3c(c1)nc(-c1ccc(-c4ncn[nH]4)c(F)c1)n3CCCCO2)C1CC1 (single isomer, unassigned) [Example 306]"
5,0.737,"COC[C@@H](Oc1cc2c3c(c1)nc(-c1ccc4nc(N)sc4n1)n3CCCCO2)C(N)=O (single isomer, unassigned) [Example 314]"
6,< 0.02,"COC[C@H](Oc1cc2c3c(c1)nc(-c1ccc4nc(N)sc4n1)n3CCCCO2)C(N)=O (single isomer, unassigned) [Example 315]"
7,7.75,"Nc1nc2cc(-c3nc4cc(Br)cc5c4n3CCCO5)ccc2o1 [Example 101, 5-(4-Bromo-8,9-dihydro-7H-6-oxa-2,9a-diazabenzo[cd]azulen-1-yl)benzo [d]oxazol 2-amine]"
8,322,"Cc1nc2nc(-c3nc4cc(Br)cc5c4n3CCCO5)ccc2o1 [Example 102, 4-bromo-1-(2-methyloxazolo[4,5-b]pyridin-5-yl)-8,9-dihydro-7H-6-oxa-2,9a-diazabenzo[cd]azulene]"
9,16.2,"Cc1nc2cc(-c3nc4cc(N5CCCC5C(N)=O)cc5c4n3CCCO5)ccc2o1 (centres unmarked) [Example 103, 1-(1-(2-methylbenzo[d]oxazol-5-yl)-8,9-dihydro-7H-6-oxa-2,9a-diazabenzo[cd]azulen-4-yl)pyrrolidine-2-carboxamide]"
10,0.032,"C[C@H](Nc1cc2c3c(c1)nc(-c1ccc4oc(N)nc4c1)n3CCCO2)C(N)=O [Example 105, (S)-2-((1-(2-Aminobenzo[d]oxazol-5-yl)-8,9-dihydro-7H-6-oxa-2,9a-diazabenzo[cd]azulen-4-yl)amino)propanamide]"
11,130,"C[C@H](Nc1cc2c3c(c1)nc(-c1ccccc1)n3CCCO2)C(N)=O [Example 106, (S)-2-((1-phenyl-8,9-dihydro-7H-6-oxa-2,9a-diazabenzo[cd]azulen-4-yl)amino)propanamide]"
12,0.58,"C[C@@H](Nc1cc2c3c(c1)nc(-c1ccc4oc(N)nc4c1)n3CCCO2)C(N)=O [Example 107, (R)-2-((1-(2-Aminobenzo[d]oxazol-5-yl)-8,9-dihydro-7H-6-oxa-2,9a-diazabenzo[cd]azulen-4-yl)amino)propanamide]"
13,22.1,"C[C@H](Nc1cc2c3c(c1)nc(-c1cccnc1)n3CCCO2)C(N)=O [Example 108, (S)-2-((1-(Pyridin-3-yl)-8,9-dihydro-7H-6-oxa-2,9a-diazabenzo[cd]azulen-4-yl)amino)propanamide]"
14,24.3,"C[C@H](Nc1cc2c3c(c1)nc(-c1ccncn1)n3CCCO2)C(N)=O [Example 109, (S)-2-((1-(pyrimidin-4-yl)-8,9-dihydro-7H-6-oxa-2,9a-diazabenzo[cd]azulen-4-yl)amino)propanamide]"
15,261,"C[C@H](Nc1cc2c3c(c1)nc(-c1ccc(C#N)cn1)n3CCCO2)C(N)=O [Example 110, (S)-2-((1-(5-Cyanopyridin-2-yl)-8,9-dihydro-7H-6-oxa-2,9a-diazabenzo[cd]azulen-4-yl)amino)propanamide]"
16,11.6,"COc1ccc(-c2nc3cc(N[C@@H](C)C(N)=O)cc4c3n2CCCO4)cn1 [Example 111, (S)-2-((1-(6-Methoxypyridin-3-yl)-8,9-dihydro-7H-6-oxa-2,9a-diazabenzo[cd]azulen-4-yl)amino)propanamide]"
17,160,"C[C@H](Nc1cc2c3c(c1)nc(-c1ccccn1)n3CCCO2)C(N)=O [Example 112, (S)-2-((1-(Pyridin-2-yl)-8,9-dihydro-7H-6-oxa-2,9a-diazabenzo[cd]azulen-4-yl)amino)propanamide]"
18,268,"NC(=O)[C@@H](Nc1cc2c3c(c1)nc(-c1ccc4c(c1)OC(F)(F)O4)n3CCCO2)C1CC1 [Example 113, (S)-2-Cyclopropyl-2-((1-(2,2-difluorobenzo[d][1,3]dioxol-5-yl)-8,9-dihydro-7H-6-oxa-2,9a-diazabenzo[cd]azulen-4-yl)amino)acetamide]"
19,23.3,"NC(=O)[C@@H](Nc1cc2c3c(c1)nc(-c1ccc4c(c1)OCO4)n3CCCO2)C1CC1 [Example 114, (S)-2-((1-(Benzo[d][1,3]dioxol-5-yl)-8,9-dihydro-7H-6-oxa-2,9a-diazabenzo[cd]azulen-4-yl)amino)-2-cyclopropylacetamide]"

# Same assay, conditions: read-out: PI3Kα-(alpha) ATP (Ki) micromolar
row,Ki [nM],Structure (SMILES)
1,0.031,"CC[C@@H](C(N)=O)n1cc(-c2cc3c4c(c2)nc(-c2ccc5oc(N)nc5n2)n4CCCO3)cn1 (single isomer, unassigned) [Example 311]"
2,0.039,"CC[C@H](C(N)=O)n1cc(-c2cc3c4c(c2)nc(-c2ccc5oc(N)nc5n2)n4CCCO3)cn1 (single isomer, unassigned) [Example 312]"
